Experimental data from PMC12491383, “Organ and tumour dosimetry of ^177Lu-rhPSMA-10.1, a novel PSMA-targeted therapy: results from a Phase I trial” (European Journal of Nuclear Medicine and Molecular Imaging, 2025).
Values joined by “and” are separate entries in the source; they are usually repeats but may differ in a detail not shown here. Equal entries are not always repeated.

Legend:
[1] = Tumour dosimetry by SPECT/CT, activity-based and anatomy-based tumour selection and delineation; assay type: in vivo, human; details: for Tumour absorbed dose lower than Cycle 1 value, on average: anatomy-based
Method: Multi-bed single-photon emission computed tomography (SPECT)/CT was conducted at 3-, 24-, 48- and 168-hours post-^177Lu-rhPSMA-10.1 administration in each treatment cycle for the estimation of organ and tumour absorbed doses in each patient. Prior to commencement of the study, each investigating site was required to complete a calibration of their dose calibrator and SPECT/CT system to ensure harmonised quantification of the imaging data. Quantitative reconstructions and all dosimetry analyses were carried out centrally by an independent dosimetry vendor (Radiopharmaceutical Imaging and Dosimetry LLC, Baltimore, MD).
The specific absorbed doses (Gy/GBq) in normal organs and tumours were determined using the Medical Internal Radiation Dose (MIRD) Committee S-value methodology. Individual patient organ masses, determined via CT delineation, were scaled to reflect deviations from reference phantom geometry. Cumulative organ absorbed doses (Gy) were calculated across all treatment cycles. Further details on dosimetry methodology are provided in the supplemental materials and have been reported in accordance with EANM guidance.
Approach one was an activity-based method equivalent to that used in most studies that have evaluated tumour dosimetry with ^177Lu-labelled PSMA RLT [28]. For this method, up to three tumours were selected according to their relative visual uptake on the 168-hour SPECT/CT. Lesion contouring for volume/mass was performed based on a 41% SUVmax threshold on the corresponding PSMA PET/CT. These contours were manually transferred onto the SPECT images, making minor adjustments where necessary to the contour margins accounting for any activity spill out on the SPECT. This is illustrated in Supplemental Figure S1. The second method was anatomy-based, with up to five tumours selected in a blinded fashion on CT according to RECIST v1.1 criteria. Lesion volume and mass were determined via manual contouring on the CT and then directly transferred to the SPECT images. Where a common lesion was selected across both methods, the difference in tumour volume resulting from the two contouring methods was calculated.
For the Cycle 1 tumour dosimetry, 36 lesions (27 bone and 9 lymph nodes) were analysed using the activity-based method, while 51 lesions (39 bone and 12 lymph nodes) were evaluated using the anatomy-based method. […] For each method, the mean tumour dose was determined by averaging the maximum tumour dose across all patients.

[2] = Venous whole-blood radioactivity measurement (gamma counter): blood clearance and red marrow absorbed dose; assay type: in vivo, human
Method: To assess the biodistribution and kinetics of radioactivity in individual tissues, whole blood and imaging-based radiation dosimetry were performed. Venous blood samples for radioactivity measurement were collected within the 30 min prior to ^177Lu-rhPSMA-10.1 administration, and at approximately 30 min, 1.5-, 4-, 24- and 48-hours post-administration in all treatment cycles. Samples were collected from the contralateral arm to that of the ^177Lu-rhPSMA-10.1 injection. Whole-blood concentrations were measured using a calibrated gamma counter to estimate both red marrow absorbed doses and blood clearance over time. All measurements were decay-corrected to the time of sample collection.
All continuous data are expressed as the mean (standard deviation [SD]) unless otherwise stated. All blood- and image-based pharmacokinetic analyses were conducted in Python and Excel. Effective half-lives for organs and tumours were calculated using a mono-exponential fit to the washout phase of the time–activity data.

CC(C)(C)[Si](F)(c1ccc(C(=O)NC[C@@H](NC(=O)CN2CCN(CC(=O)[O-])CCN(CC(=O)[O-])CCN(CC(=O)[O-])CC2)C(=O)N[C@H](CCCCNC(=O)CCC(=O)NCCC[C@@H](NC(=O)CC[C@H](NC(=O)N[C@@H](CCC(=O)O)C(=O)O)C(=O)O)C(=O)O)C(=O)O)cc1)C(C)(C)C.[177Lu+3] [^177Lu-rhPSMA-10.1]
Tumour absorbed dose lower than Cycle 1 value, on average ([1]; Cycle 2, 11 patients with multiple cycles): ~ 37% and 37%
Tumour absorbed dose lower than Cycle 1 value, on average ([1]; Cycle 3): ~ 56% and 56%
Maximum tumour absorbed dose, range across patients ([1]; activity method, Cycle 1): 2.00–25.7 Gy/GBq
Mean (SD) maximum tumour absorbed dose ([1]; activity method, Cycle 1): 8.87 Gy/GBq and 8.87 (6.71) Gy/GBq
Mean therapeutic index, ratio of tumour-to-kidney absorbed doses ([1]; activity method, Cycle 1): 32.1
Mean tumour-to-salivary gland absorbed dose ratio ([1]; activity method, Cycle 1): 73.2
Maximum tumour absorbed dose, range across patients ([1]; anatomy method, Cycle 1): 0.37–6.67 Gy/GBq
Mean (SD) maximum tumour absorbed dose ([1]; anatomy method, Cycle 1): 2.38 (1.78) Gy/GBq and 2.38 Gy/GBq
Mean (SD) Absorbed Dose, bone marrow (blood-based) ([2]; All Cycles): 0.032 Gy/GBq and 0.032 (0.010) Gy/GBq
Mean (SD) Absorbed Dose, bone marrow (blood-based) ([2]; Cycle 1, 13 patients): 0.031 (0.010) Gy/GBq
Effective half-life in blood ([2]; venous whole blood, based on mean patient levels, mean (SD)): 2.2 h
